In brackets after ≈: the same amount, converted by molar mass. Like-named read-outs stand apart in the source and are kept apart here.
Tests used:
[1] = system: human umbilical vein endothelial cells HUVEC (ATCC CRL-1730); assay: Growth inhibition (antiproliferative effect) of HUVEC; assay type: cell-based; conditions: read-out: antiproliferative GI50, HUVEC
Method: (§2) Compounds were assayed against human umbilical vein endothelial cells HUVEC (ATCC CRL-1730) and human chronic myeloid leukemia cells K-562 (DSM ACC 10) for their antiproliferative effects (GI50) and against human cervix carcinoma cells HeLa (DSM ACC 57) for their cytotoxic effects (CC50) as previously described (Scherlach, K., Partida-Martinez, L. P., Dahse, H. M. & Hertweck, C. Antimitotic rhizoxin derivatives from a cultured bacterial endosymbiont of the rice pathogenic fungus Rhizopus microsporus. Journal of the American Chemical Society 128, 11529-11536 (2006)).

[2] = system: human chronic myeloid leukemia cells K-562 (DSM ACC 10); assay: Growth inhibition (antiproliferative effect) of K-562; assay type: cell-based
Method: as §2

[3] = system: Mycobacterium vaccae 10670; assay: Antimicrobial activity (MIC), test strain Mycobacterium vaccae 10670; assay type: cell-based
Description: Antimicrobial (MIC value [μM]), cytotoxic (CC50 [μM] for HeLa) and antiproliferative (GI50 [μM] for HUVEC, K-562, HT-29 and MEL-HO) activities of chartreusin and its derivatives. Test strain: Mycobacterium vaccae 10670.

[4] = Cytotoxicity against HeLa; conditions: human, HeLa cells (human cervix carcinoma, DSM ACC 57)
Method: as §2

[5] = in vitro; conditions: human
Method: as §2

[6] = system: methicillin-resistant Staphylococcus aureus (MRSA); assay: Antibiotic activity against MRSA; assay type: cell-based
[7] = system: human MEL-HO (ACC 62) melanoma cells; assay: Growth inhibition of MEL-HO in the presence or absence of light; assay type: cell-based
Method: (§1) The human HT-29 colon adenocarcinoma cells (ACC 299) and the human MEL-HO (ACC 62) melanoma cells were grown as previously described (Ueberschaar, N.; Dahse, H.-M.; Bretschneider, T.; Hertweck, C. Angew. Chem. Int. Ed. 2013, 52, 6185-6189).

[8] = system: human HT-29 colon adenocarcinoma cells (ACC 299); assay: Growth inhibition of HT-29 in the presence or absence of light; assay type: cell-based
Method: as §1

[9] = system: human cervix carcinoma cells HeLa (DSM ACC 57); assay: Cytotoxicity against HeLa; conditions: for CC50: read-out: cytotoxic CC50, HeLa, HeLa
Method: as §2

[10] = Homo sapiens, K562; read-out: antiproliferative GI50, K-562
[11] = Mycolicibacterium vaccae, Test strain: Mycobacterium vaccae 10670, read-out: Antimicrobial MIC value, Mycobacterium vaccae
[12] = Homo sapiens, K562, read-out: antiproliferative GI50, K-562
[13] = 8 h, read-out: antiproliferative GI50, Mel-HO, 420 nm, 3 × 8 h
[14] = read-out: antiproliferative GI50, Mel-HO, w/o light
[15] = Homo sapiens, HT-29, 8 h, read-out: antiproliferative GI50, HT-29, 420 nm, 3 × 8 h, HT-29, 420 nm, 3 × 8 h
[16] = Homo sapiens, HT-29, read-out: GI50 with light, HT-29, HT-29, with light (blue LED)
[17] = Homo sapiens, HT-29, read-out: GI50 without light, HT-29, HT-29, without light (absence of light)
[18] = Homo sapiens, HT-29, read-out: antiproliferative GI50, HT-29, w/o light, HT-29, w/o light
[19] = read-out: GI50 without light, HT-29, HT-29, without light (absence of light)
[20] = Mycolicibacterium vaccae, 10670, read-out: Antimicrobial MIC value, Mycobacterium vaccae
[21] = K-562; read-out: antiproliferative GI50, K-562
[22] = Test strain: Mycobacterium vaccae 10670, read-out: Antimicrobial MIC value, Mycobacterium vaccae

Row | Molecule | GI50 [2, 10] | MIC [3, 11] | GI50 ([1]; Homo sapiens) | CC50 [4] | also measured
1 | COC1[C@@H](O)C(C)O[C@H](OC2[C@H](Oc3cccc4c(O)c5c(=O)oc6ccc(O)c7c(=O)oc(c34)c5c67)OC(C)[C@H](O)[C@@H]2O)[C@@H]1O (stereo partly shown) | 4.82 µM | 2.4 µM (≈ 1.54 µg/mL) | 35 µM | 25.5 µM | –
2 | C#Cc1cc2oc(=O)c3c(O)c4cccc(O[C@@H]5OC(C)[C@H](O)[C@H](O)C5O[C@H]5OC(C)[C@H](O)C(OC)[C@H]5O)c4c4oc(=O)c(c1)c2c34 (stereo partly shown) [(1→2)Abeo-ethinylchartreusin, (1→2)-Abeo-ethynylchartreusin] | – | 19.2 µM (≈ 12.5 µg/mL) | 7.84 µM | – | CC50 [5]: 13.4 µM; GI50 [2, 12]: 3.23 µM; antibiotic activity against MRSA relative to chartreusin and ciprofloxacin [6]: as active as the natural product and are even more potent than the reference antibiotic ciprofloxacin; GI50 [7, 13]: 1.38 µM; GI50 [7, 14]: 2 µM; activity higher in the presence of light, HT-29 ([8]; HT-29, with light vs without light): 5 fold; GI50 [8, 15]: 1.69 µM; GI50 [8, 16]: 1.7 µM; GI50 [8, 17]: 7 to 9.4 µM; GI50 [8, 18]: 8.61 µM; GI50 [8, 19]: 8.6 µM
3 | C=Cc1cc2oc(=O)c3c(O)c4cccc(O[C@@H]5OC(C)[C@H](O)[C@H](O)C5O[C@H]5OC(C)[C@H](O)C(OC)[C@H]5O)c4c4oc(=O)c(c1)c2c34 (stereo partly shown) [(1→2)Abeovinylchartreusin, (1→2)-Abeo-vinylchartreusin] | – | 19.2 µM (≈ 12.5 µg/mL) | 16.9 µM | – | CC50 [5]: 33.7 µM; GI50 [2, 12]: 4.9 µM; GI50 [7, 13]: 0.48 µM; GI50 [7, 14]: 1.03 µM; GI50 [8, 15]: 3.06 µM; GI50 [8, 16]: 3.1 µM; GI50 [8, 17]: 7 to 9.4 µM; GI50 [8, 18]: 9.35 µM; GI50 [8, 19]: 9.4 µM
4 | O=C(Oc1c2cccc(OC(=O)N3CCC(N4CCCCC4)CC3)c2c2oc(=O)c3c(Br)ccc4oc(=O)c1c2c43)N1CCC(N2CCCCC2)CC1 [Bromchartarin-1,10 bis-1,4′-bipiperidine-1′-carboxylate] | 9.27 µM | – | 10 µM | 20.2 µM | MIC [3, 20]: > 100 µM
5 | COC1[C@@H](O)C(C)O[C@H](OC2[C@H](Oc3cccc4c(O)c5c(=O)oc6ccc(Br)c7c(=O)oc(c34)c5c67)OC(C)[C@H](O)[C@@H]2O)[C@@H]1O (stereo partly shown) [Bromchartreusin, 1-Bromochartreusin] | 8.79 µM | 8.9 µM (≈ 6.28 µg/mL) | 65.8 µM | 48.2 µM | –
6 | Cc1ccc2oc(=O)c3c(OC(=O)N4CCC(N5CCCCC5)CC4)c4cccc(OC(=O)N5CCC(N6CCCCC6)CC5)c4c4oc(=O)c1c2c34 [Chartarin-1,10 bis-1,4′-bipiperidine-1′-carboxylate] | 3.18 µM | – | 4.43 µM | 10.1 µM | MIC [3, 20]: > 100 µM
7 | C#Cc1ccc2oc(=O)c3c(O)c4cccc(O[C@@H]5OC(C)[C@H](O)[C@H](O)C5O[C@H]5OC(C)[C@H](O)C(OC)[C@H]5O)c4c4oc(=O)c1c2c34 (stereo partly shown) [Ethinylchartreusin, Ethynylchartreusin] | 64.1 µM | 19.2 µM (≈ 12.5 µg/mL) | > 77 µM | > 77 µM | GI50 ([8]; Homo sapiens, HT-29, 8 h, HT-29, 420 nm, 3 × 8 h, read-out: antiproliferative GI50, HT-29, 420 nm, 3 × 8 h): 26.9 µM; GI50 ([8]; Homo sapiens, HT-29, HT-29, w/o light, read-out: antiproliferative GI50, HT-29, w/o light): 33.2 µM
8 | COc1ccc2oc(=O)c3c(O)c4cccc(O[C@@H]5OC(C)[C@H](O)[C@H](O)C5O[C@H]5OC(C)[C@H](O)C(OC)[C@H]5O)c4c4oc(=O)c1c2c34 (stereo partly shown) [Methoxychartreusin] | > 76 µM | 76 µM (≈ 49.9 µg/mL) | > 76 µM | > 76 µM | –
9 | Norchartarin-1,10 bis-1,4′-bipiperidine-1′-carboxylate | – | – | – | – | GI50 [1]: 52.3 µM; GI50 [2, 21]: 52.2 µM; MIC [3, 22]: >100 µM; CC50 [9]: > 71 µM
10 | vinylchartarin-1,10 bis-1,4′-bipiperidine-1′-carboxylate | – | – | – | – | GI50 [1]: > 68 µM; GI50 [2, 21]: > 68 µM; MIC [3, 22]: >100 µM; CC50 [9]: > 68 µM

Continued, in another order:

Row | GI50 [2, 10] | MIC [3, 11] | Molecule | GI50 ([1]; Homo sapiens) | CC50 [4] | also measured
11 | 8.65 µM | 17.7 µM (≈ 12.5 µg/mL) | COC1[C@@H](O)C(C)O[C@H](OC2[C@H](Oc3cccc4c(O)c5c(=O)oc6cc(Br)cc7c(=O)oc(c34)c5c67)OC(C)[C@H](O)[C@@H]2O)[C@@H]1O (stereo partly shown) [(1→2)Abeobromchartreusin, (1→2)-Abeo-bromochartreusin] | 25.1 µM | 26.1 µM | –
12 | 2.03 µM | 4.87 µM (≈ 3.12 µg/mL) | COC1[C@@H](O)C(C)O[C@H](OC2[C@H](Oc3cccc4c(O)c5c(=O)oc6cc(C)cc7c(=O)oc(c34)c5c67)OC(C)[C@H](O)[C@@H]2O)[C@@H]1O (stereo partly shown) [(1→2)Abeochartreusin, (1→2)-Abeo-chartreusin] | 5.78 µM | 14.2 µM | –
13 | 11.6 µM | 19.1 µM (≈ 12.5 µg/mL) | CCc1cc2oc(=O)c3c(O)c4cccc(O[C@@H]5OC(C)[C@H](O)[C@H](O)C5O[C@H]5OC(C)[C@H](O)C(OC)[C@H]5O)c4c4oc(=O)c(c1)c2c34 (stereo partly shown) [(1→2)Abeohomochartreusin, (1→2)-Abeo-homochartreusin] | 26.6 µM | 58.1 µM | –
14 | 2.14 µM | 9.6 µM (≈ 6.28 µg/mL) | CCc1ccc2oc(=O)c3c(O)c4cccc(O[C@@H]5OC(C)[C@H](O)C(O)C5O[C@H]5OC(C)[C@H](O)C(OC)C5O)c4c4oc(=O)c1c2c34 (stereo partly shown) [Homochartreusin] | 7.18 µM | 23.1 µM | selectivity (GI50 HUVEC versus cytotoxic activity HeLa) ([9]; compared with Chartreusin, HUVEC GI50 similarly low, HeLa CC50 different): higher selectivity
15 | 31.6 µM | 2.5 µM (≈ 1.57 µg/mL) | COC1[C@@H](O)C(C)O[C@H](OC2[C@H](Oc3cccc4c(O)c5c(=O)oc6cccc7c(=O)oc(c34)c5c67)OC(C)[C@H](O)[C@@H]2O)[C@@H]1O (stereo partly shown) [Norchartreusin] | 79.8 µM | 70.7 µM | –

Source: US9522930B2, “Chartreusin analogues” (Leibniz-Institut Für Naturstoff-Forschung Und …, priority 2012, dated 2016)
